Results taken from the supplement of paper PMC4862054.

How the values were obtained:
Conditions in all cases: incubation time: 72 h
MDA-MB-468 [1] = experiment: normalised response (% of control), CellTox Green; higher = less cell death (100 = DMSO, 0 = benzethonium chloride kill control)
How it was run: (§1)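 Values are normalised signals, each belonging to one concentration of the series. Breast cancer cells (20 µl suspension) were seeded into 384-well plates with compound at 5 concentrations in 10-fold steps over a compound-specific 10,000-fold range and incubated 72 h. Readouts were CellTox Green fluorescence (485/520 nm), then CellTiter-Glo luminescence after 10 min at room temperature, with each plate set to 0.1 % DMSO as 100 and a positive kill control as 0.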

HCC1599 [2] = experiment: as above
How it was run: as §1

MDA-MB-231 [3] = experiment: as above
How it was run: as §1

BT-474 [4] = experiment: as above
How it was run: as §1

DU-4475 [5] = experiment: as above
How it was run: as §1

MCF-10A [6] = experiment: as above
How it was run: as §1

BT-549 [7] = experiment: as above
How it was run: as §1

HCC1143 [8] = experiment: as above
How it was run: as §1

MFM-223 [9] = experiment: as above
How it was run: as §1

MDA-MB-436 [10] = experiment: as above
How it was run: as §1

HCC1937 [11] = experiment: as above
How it was run: as §1

CAL-51 [12] = experiment: as above
How it was run: as §1

Hs578T [13] = experiment: as above
How it was run: as §1

CAL-85-1 [14] = experiment: as above
How it was run: as §1

HDQ-P1 [15] = experiment: as above
How it was run: as §1

CAL-120 [16] = experiment: as above
How it was run: as §1

MDA-MB-453 [17] = experiment: as above
How it was run: as §1

SK-BR-3 = experiment: normalised response (% of control), CellTiter-Glo; higher = more viable cells (100 = DMSO, 0 = benzethonium chloride kill control)
Protocol: (§2)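 DSRT, 72 h incubation, CellTox Green / CellTiter-Glo readout. Signal is normalised to DMSO and benzethonium chloride controls. Value is the normalised response at the highest dose.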

MDA-MB-468 [18] = experiment: as above
Protocol: as §2

HCC1599 [19] = experiment: as above
Protocol: as §2

CAL-148 [20] = experiment: as above
Protocol: as §2

MDA-MB-231 [21] = experiment: as above
Protocol: as §2

BT-474 [22] = experiment: as above
Protocol: as §2

DU-4475 [23] = experiment: as above
Protocol: as §2

MCF-10A [24] = experiment: as above
Protocol: as §2

BT-549 [25] = experiment: as above
Protocol: as §2

HCC1143 [26] = experiment: as above
Protocol: as §2

MFM-223 [27] = experiment: as above
Protocol: as §2

MDA-MB-436 [28] = experiment: as above
Protocol: as §2

HCC1937 [29] = experiment: as above
Protocol: as §2

CAL-51 [30] = experiment: as above
Protocol: as §2

Hs578T [31] = experiment: as above
Protocol: as §2

CAL-85-1 [32] = experiment: as above
Protocol: as §2

HDQ-P1 [33] = experiment: as above
Protocol: as §2

CAL-120 [34] = experiment: as above
Protocol: as §2

MDA-MB-453 [35] = experiment: as above
Protocol: as §2

CAL-148 [36] = experiment: normalised response (% of control), CellTox Green; higher = less cell death (100 = DMSO, 0 = benzethonium chloride kill control)
How it was run: as §1

Compound | normalised response (MDA-MB-468 [1]) | normalised response (HCC1599 [2]) | normalised response (MDA-MB-231 [3]) | normalised response (BT-474 [4]) | normalised response (DU-4475 [5]) | normalised response (MCF-10A [6]) | normalised response (BT-549 [7]) | normalised response (HCC1143 [8]) | normalised response (MFM-223 [9]) | normalised response (MDA-MB-436 [10]) | normalised response (HCC1937 [11]) | normalised response (CAL-51 [12]) | normalised response (Hs578T [13]) | normalised response (CAL-85-1 [14]) | normalised response (HDQ-P1 [15]) | normalised response (CAL-120 [16]) | normalised response (MDA-MB-453 [17]) | normalised response (SK-BR-3) | normalised response (MDA-MB-468 [18]) | normalised response (HCC1599 [19]) | normalised response (CAL-148 [20]) | normalised response (MDA-MB-231 [21]) | normalised response (BT-474 [22]) | normalised response (DU-4475 [23]) | normalised response (MCF-10A [24]) | normalised response (BT-549 [25]) | normalised response (HCC1143 [26]) | normalised response (MFM-223 [27]) | normalised response (MDA-MB-436 [28]) | normalised response (HCC1937 [29]) | normalised response (CAL-51 [30]) | normalised response (Hs578T [31]) | normalised response (CAL-85-1 [32]) | normalised response (HDQ-P1 [33]) | normalised response (CAL-120 [34]) | normalised response (MDA-MB-453 [35]) | normalised response (CAL-148 [36])
CC(=O)c1c(C)c2cnc(Nc3ccc(N4CCNCC4)cn3)nc2n(C2CCCC2)c1=O [Palbociclib] (10000 nM) | 193% | 99.4% | 121% | 96% | 97% | 74.4% | 106% | 101% | 90.1% | 68.1% | 89% | 94.1% | 135% | 103% | 50.1% | 102% | 61.4% | 52.9% | 68.2% | 86.5% | 80.4% | 84.3% | 69.7% | 86.9% | 65.8% | 79.3% | 76.5% | 65.9% | 74.4% | 93.2% | 55% | 86.9% | 70.4% | 86.3% | 77.7% | 92.7% | –
C[C@]1(O)C[C@@H](c2nc(-c3ccc4ccc(-c5ccccc5)nc4c3)c3c(N)nccn32)C1 [Linsitinib] (10000 nM) | 96.4% | 101% | 65% | 95.6% | 97.4% | 101% | 111% | 119% | 89.9% | – | 105% | 95.4% | 68.2% | 89.2% | 107% | 97.5% | 99.2% | 49.9% | 59.2% | 50.9% | 88.2% | 77.2% | 68.8% | 85.5% | 26.1% | 76% | 68.5% | 83.1% | 85.5% | 88.7% | 126% | 91.9% | 69.6% | 53.5% | 73.6% | 80% | 98.4%
C[C@]12CC[C@@H]3c4ccc(OC(=O)N(CCCl)CCCl)cc4CC[C@H]3[C@@H]1CC[C@@H]2O [Estramustine] (10000 nM) | – | 95% | 102% | 99% | 96.4% | 106% | 58% | 110% | 96.7% | 99.6% | 81.2% | 74% | 79.7% | 130% | – | 98.3% | 96.2% | 87.4% | 87.7% | 95.5% | 78.5% | 96.6% | 95% | 85.5% | 88% | 106% | 97.5% | 85.9% | 91.7% | 91.7% | 93.3% | 92.7% | 94.2% | 105% | 103% | 92.4% | 101%
